Data as given in article PMC5075789, “Orphan GPR110 (ADGRF1) targeted by N-docosahexaenoylethanolamine in development of neurons and cognitive function” (Nature Communications, 2016).

Assays:
[1] = target: T1, hGPR110-HA (human GPR110, ADGRF1) (Homo sapiens, UniProt Q5T601); test: streptavidin pull-down and western blot; type: binding; conditions: 1 μM G1, HEK293 lysate
T1 construct: full-length ORF, 910 residues, C-terminal HA tag kept, expressed in HEK293 (CRE-luc2P HEK293 for cAMP); immunopurified with anti-HA for MST; glycosylated, about 130 and 110 kD
T1 sequence (Q5T601 20-566): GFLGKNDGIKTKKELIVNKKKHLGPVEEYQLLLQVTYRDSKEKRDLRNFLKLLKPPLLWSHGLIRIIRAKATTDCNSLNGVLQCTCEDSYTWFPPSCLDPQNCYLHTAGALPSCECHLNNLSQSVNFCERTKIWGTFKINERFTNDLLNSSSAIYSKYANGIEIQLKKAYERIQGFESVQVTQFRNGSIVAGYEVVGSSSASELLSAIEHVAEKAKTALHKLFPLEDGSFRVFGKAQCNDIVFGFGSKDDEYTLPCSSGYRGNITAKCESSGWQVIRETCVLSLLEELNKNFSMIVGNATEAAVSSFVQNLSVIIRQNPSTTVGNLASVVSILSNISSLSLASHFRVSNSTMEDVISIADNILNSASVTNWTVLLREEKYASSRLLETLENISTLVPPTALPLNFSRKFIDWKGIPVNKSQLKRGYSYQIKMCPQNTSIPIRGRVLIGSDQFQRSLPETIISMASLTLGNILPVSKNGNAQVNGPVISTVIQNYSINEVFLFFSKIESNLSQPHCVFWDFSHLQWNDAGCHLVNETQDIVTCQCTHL
T1 sequence (Q5T601 567-910): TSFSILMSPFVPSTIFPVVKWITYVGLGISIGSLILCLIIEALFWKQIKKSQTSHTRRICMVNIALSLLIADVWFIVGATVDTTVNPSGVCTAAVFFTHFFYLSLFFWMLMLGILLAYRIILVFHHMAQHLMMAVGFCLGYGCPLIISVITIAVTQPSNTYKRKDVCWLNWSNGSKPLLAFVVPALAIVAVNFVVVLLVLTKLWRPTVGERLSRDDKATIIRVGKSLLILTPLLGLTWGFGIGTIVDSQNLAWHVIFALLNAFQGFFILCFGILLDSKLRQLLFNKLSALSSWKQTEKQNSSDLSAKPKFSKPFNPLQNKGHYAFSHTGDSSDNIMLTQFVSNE

[2] = target: T2, mGPR110-HA (mouse GPR110) (Mus musculus, UniProt Q8VEC3); test: streptavidin pull-down and western blot; type: binding; conditions: 1 μM G1, HEK293 lysate, PBS with 0.5% Triton X-100
T2 construct: gene Adgrf1; full-length ORF, C-terminal HA tag kept, expressed in HEK293; about 100 kD main band
T2 sequence (Q8VEC3 21-564): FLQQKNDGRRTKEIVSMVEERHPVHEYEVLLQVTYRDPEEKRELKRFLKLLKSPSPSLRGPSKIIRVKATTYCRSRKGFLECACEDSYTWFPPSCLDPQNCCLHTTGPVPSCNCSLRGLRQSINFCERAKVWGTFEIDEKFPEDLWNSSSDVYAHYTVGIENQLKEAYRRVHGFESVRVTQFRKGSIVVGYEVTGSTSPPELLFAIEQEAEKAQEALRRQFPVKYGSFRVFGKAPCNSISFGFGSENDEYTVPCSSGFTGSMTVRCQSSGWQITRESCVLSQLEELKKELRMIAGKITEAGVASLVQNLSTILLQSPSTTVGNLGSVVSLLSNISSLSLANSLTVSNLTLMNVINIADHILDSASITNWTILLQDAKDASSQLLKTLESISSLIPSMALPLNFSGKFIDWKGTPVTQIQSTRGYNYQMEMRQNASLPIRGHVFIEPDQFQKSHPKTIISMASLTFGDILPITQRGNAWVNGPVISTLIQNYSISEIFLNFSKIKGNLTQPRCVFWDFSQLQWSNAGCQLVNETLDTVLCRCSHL
T2 sequence (Q8VEC3 565-908): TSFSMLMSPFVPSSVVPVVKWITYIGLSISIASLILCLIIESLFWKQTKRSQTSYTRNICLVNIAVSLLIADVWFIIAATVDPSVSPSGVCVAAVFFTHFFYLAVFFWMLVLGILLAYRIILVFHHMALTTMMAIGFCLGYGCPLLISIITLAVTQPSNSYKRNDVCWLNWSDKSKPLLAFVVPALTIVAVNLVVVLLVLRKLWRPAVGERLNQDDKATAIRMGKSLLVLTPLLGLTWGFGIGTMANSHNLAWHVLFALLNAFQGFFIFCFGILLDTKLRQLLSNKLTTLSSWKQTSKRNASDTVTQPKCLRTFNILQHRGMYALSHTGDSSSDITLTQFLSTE

[3] = target: T1, hGPR110-HA (human GPR110, ADGRF1); test: microscale thermophoresis; conditions: read-out: apparent Kd
Text: microscale thermophoresis on hGPR110-HA (human GPR110, ADGRF1) | immunopurified hGPR110 and bodipy-synaptamide, a fluorescent synaptamide analogue, indicated apparent Kd

[4] = target: T2, mGPR110-HA (mouse GPR110); test: in-cell cross-linking (DSS), streptavidin pull-down, western blot; type: cell-based; conditions: 1 μM G1*, live HEK293 cells, 25 °C; cross-linked by 1 mM DSS

Which “streptavidin pull-down and western blot” value [1] does the source give for `CC/C=C\C/C=C\C/C=C\C/C=C\C/C=C\C/C=C\CCC(=O)NCCNC(=O)CCCC[C@@H]1SC[C@@H]2NC(=O)N[C@@H]21` [G1, (4Z,7Z,10Z,13Z,16Z,19Z)-N-(2-(5-((3aS,4S,6aR)-2-oxohexahydro-1H-thieno(3,4-d)imidazol-4-yl)pentanamido)ethyl)docosa-4,7,10,13,16,19-hexaenamide] here?
The value was “hGPR110 showed G1 binding which was displaced by synaptamide”.

What about the “streptavidin pull-down and western blot” value [2] of the same compound?
The value was “confirming binding of G1 to the expressed mGPR110-HA”.

Which Kd [3] does the source give for `CC/C=C\C/C=C\C/C=C\C/C=C\C/C=C\C/C=C\CCC(=O)NCCNC(=O)CCCCC1=C2C(C)=CC(C)=[N+]2[B-](F)(F)n2c(C)cc(C)c21` [bodipy-synaptamide, 10-(5-((2-((4Z,7Z,10Z,13Z,16Z,19Z)-docosa-4,7,10,13,16,19-hexaenamido)ethyl)amino)-5-oxopentyl)-5,5-difluoro-1,3,7,9-tetramethyl-5H-dipyrrolo(1,2-c:2',1'-f)(1,3,2)diazaborinin-4-ium-5-uide] here?
The Kd was ~20 nM.

Which “in-cell cross-linking (DSS), streptavidin pull-down, western blot” value [4] does the source give for `CC/C=C\C/C=C\C/C=C\C/C=C\C/C=C\C/C=C\CCC(=O)NCCCC(CCCN)NC(=O)CCCC[C@@H]1SC[C@@H]2NC(=O)N[C@@H]21` (stereo partly drawn) [G1*, (4Z,7Z,10Z,13Z,16Z,19Z)-N-(7-amino-4-(5-((3aS,4S,6aR)-2-oxohexahydro-1H-thieno(3,4-d)imidazol-4-yl)pentanamido)heptyl)docosa-4,7,10,13,16,19-hexaenamide] here?
Its value is “confirming G1* binding to GPR110-HA in live HEK cells”.
